Measurements published in US5773424A, “Treatment of toxoplasmosis” (priority 1994, dated 1998).
Where two headings read alike, the source gives them in different places.

Biological target: T. gondii adenosine kinase (Toxoplasma gondii, UniProt Q9TVW2)
Experiment: biochemical
Conditions: for inhibition at 1000 µM: read-out: Inhibition of T. gondii adenosine kinase; for Decrease in binding to T. gondii adenosine kinase: relative to reference compound adenosine
Procedure: Preparation of cytosol extracts. For the structure activity relationships studies, approximately 5×10^8 T. gondii were suspended in 1.2 ml of 50 mM N-2-hydroxyethylpiperazine-N'-2-ethanesulfonic acid (HEPES)-Cl (pH 8.0)/1 mM dithiothreitol and homogenized for 30 seconds at setting 10, using a Brinnmann Instruments Polytron homogenizer fitted with a PTA 7K1 probe. The homogenate was then centrifuged at approximately 116,000 g for 1 hour at 5° and the supernatant (cytosol extract) collected and used as the enzyme source. Fresh cytosol extracts were prepared for each experiment.
Adenosine kinase assay. T. gondii adenosine kinase activity was measured by following the formation of [^14 C]AMP from [^14 C]adenosine and ATP. […] Therefore, the standard reaction mixture contained 50 mM HEPES-Cl (pH 8.0), 1 mM dithiothreitol, 5 μM [8-^14 C]adenosine (45 Ci/mol), 0.5 mM ATP, 0.5 mM MgCl2, 25 μM (+)-EHNA or 100 μM (±)-EHNA,10-30 μl of cytosol extract (approximately 3-10 μg of protein), and either 0, 0.1, 0.25, 0.5 or 1.0 mM of the compound to be tested, in a final volume of 150 μl.
Reactions were started by the addition of [8-^14 C]adenosine, incubated at 37° for 10 minutes and terminated by placing the reaction tubes in a boiling water bath for 2 minutes. Precipitated proteins were removed by centrifugation in a microcentrifuge (approximately 13,000 g) for 5 minutes, and a 15 μl aliquot of the resulting supernatant was mixed with 5 μl of a solution containing 10 mM each of AMP and adenosine. This mixture was then spotted on silica gel thin layer chromatography plates which were developed with a mixture of chloroform/methanol/acetic acid (16:3:1). […] The substrate and product spots (which accounted for all of the radioactivity on the plates) were identified by UV quenching, cut out, and the radioactivity quantitated by liquid scintillation counting in 20 ml of Scintilene, using a Packard 460 scintillation counter. […] Enzyme velocity was calculated by multiplying the fraction of AMP formed from adenosine times the amount of adenosine in the assay, and dividing by the incubation time.
Determination and significance of AppKi values. AppKi values were used to determine the relative degree of binding of compounds to adenosine kinase as compared to adenosine. AppKi values were estimated from Dixon plots of the data (1/.nu. versus [I]), using a computer program with least squares fitting according to the general principles of Cleland (Cleland, W W, The statistical analysis of enzyme kinetic data. Adv. Enzymol. 29:1-32, 1967). The program was written by Dr. Sungman Cha (Brown University, Providence, R.I.) and modified to fit IBM BASIC by Dr. Fardos N. M. Naguib. […] It should be noted, however, that the type of inhibition (i.e., competitive, noncompetitive, or uncompetitive) produced by the compounds was not determined, nor were the compounds evaluated as substrates for T. gondii adenosine kinase.

[1] = AppKi for inhibition of T. gondii adenosine kinase, 5 μM adenosine, ± range, at least two estimations

T. gondii adenosine kinase, sequence (Q9TVW2 whole entry): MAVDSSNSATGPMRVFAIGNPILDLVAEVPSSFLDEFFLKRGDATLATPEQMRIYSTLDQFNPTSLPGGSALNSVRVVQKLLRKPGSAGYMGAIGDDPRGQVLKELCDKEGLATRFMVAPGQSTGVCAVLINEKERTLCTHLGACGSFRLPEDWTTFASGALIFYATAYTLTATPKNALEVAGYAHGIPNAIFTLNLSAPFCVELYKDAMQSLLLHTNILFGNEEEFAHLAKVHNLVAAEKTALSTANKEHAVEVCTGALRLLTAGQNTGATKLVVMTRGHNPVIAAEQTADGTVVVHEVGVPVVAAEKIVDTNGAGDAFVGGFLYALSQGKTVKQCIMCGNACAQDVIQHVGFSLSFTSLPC

Structure (SMILES) | Ki | further results
CCNc1ncnc2c1ncn2[C@@H]1O[C@H](CO)[C@@H](O)[C@H]1O [Compound 28] | 100 ± 3 µM | 
CCSc1ncnc2c1cnn2[C@@H]1O[C@H](CO)[C@@H](O)[C@H]1O [Compound 76, 8-Aza-6-ethylmercapto-7-deazapurine riboside] | 210 ± 100 µM | 
NC(=O)c1cn([C@@H]2O[C@H](CO)C[C@H]2O)c2ncnc(N)c12 [Compound 120, 7-Deaza-7-carboxamido-3'-deoxyadenosine (3'-Deoxysangivamycin)] |  | Ki [1]: 110 ± 20 µM; Reduction of binding to T. gondii adenosine kinase (relative to sangivamycin): 2 fold
O=c1[nH]cnc2c1ncn2[C@@H]1O[C@H](CO)[C@@H](O)[C@H]1O [Compound 15] |  | inhibition at 1000 µM: < 10%
Nc1ncnc2c1ncn2[C@@H]1C[C@H](CO)[C@@H](O)[C@H]1O (relative stereo) [Compound 112, Carbocyclic adenosine] |  | Ki (read-out: AppKi for inhibition of T. gondii adenosine kinase, 5 μM adenosine, ± range, at least two estimations): 170 ± 30 µM
CCSc1ncnc2c1ncn2[C@@H]1O[C@H](CO)[C@@H](O)[C@H]1O [Compound 19] | 330 ± 3 µM | 
Nc1nc(Nc2ccccc2)nc2c1ncn2[C@@H]1O[C@H](CO)[C@@H](O)[C@H]1O [Compound 9] |  | inhibition at 1000 µM: < 10%
CC1(C)O[C@@H]2[C@H](O1)[C@@H](CO)O[C@H]2n1cnc2c(=S)[nH]cnc21 [Compound 122, 2',3'-O-Isopropylidene-6-mercaptopurine riboside] | 3900 µM | 
CNc1ncnc2c1c(C(N)=S)cn2[C@@H]1O[C@H](CO)[C@@H](O)[C@H]1O [Compound 71, N^6 -Methyl-7-thiocarboxyamido-7-deazaadenosine] | 150 ± 1 µM | 
CO[C@@H]1[C@H](O)[C@@H](CO)O[C@H]1n1cnc2c(N)ncnc21 [Compound 88, 2'-O-Methyladenosine] |  | inhibition at 1000 µM: < 10%; Effect on binding to T. gondii adenosine kinase, in words (relative to adenosine): abolishes
Nc1ccc(CNc2ncnc3c2ncn3[C@@H]2O[C@H](CO)[C@@H](O)[C@H]2O)cc1 [Compound 46] | 120 ± 10 µM | 
OC[C@H]1O[C@@H](n2cnc3cncnc32)[C@H](O)[C@@H]1O [Compound 11] |  | Ki [1]: 170 ± 20 µM
Nc1ncnc2c1ncn2[C@@H]1O[C@H](CO)[C@H](O)[C@H]1O [Compound 92, Adenine xyloside] | 1400 µM | Decrease in binding to T. gondii adenosine kinase: 200 fold
Nc1ncnc2c1ncn2[C@@H]1O[C@H](CO)[C@@H](O)[C@H]1O [Compound 1] | 7 ± 3.3 µM | 
Cc1ccc(S(=O)(=O)O[C@@H]2[C@H](O)[C@@H](CO)O[C@H]2n2cnc3c(N)ncnc32)cc1 [Compound 89, 2'Tosyladenosine] |  | inhibition at 1000 µM: < 10%
C=CCNc1ncnc2c1ncn2[C@@H]1O[C@H](CO)[C@@H](O)[C@H]1O [Compound 30] | 220 ± 20 µM | 
OC[C@H]1O[C@@H](n2cnc3c(S)ncnc32)[C@H](O)[C@@H]1O [Compound 17] | 5300 µM | 
Nc1nccc2c1ncn2[C@@H]1O[C@H](CO)[C@@H](O)[C@H]1O [Compound 10] |  | inhibition at 1000 µM: < 10%
CSc1ncnc2c1nnn2[C@@H]1O[C@H](CO)[C@@H](O)[C@H]1O [Compound 83, 8-Aza-6-methylmercaptopurine riboside] | 130 ± 40 µM | 
CNc1ncnc2c1ncn2[C@@H]1O[C@H](CO)[C@@H](O)[C@H]1O [Compound 26] |  | Ki [1]: 23 ± 1 µM
OC[C@H]1O[C@@H](n2cnc3c(=[Se])[nH]cnc32)[C@H](O)[C@@H]1O [Compound 23] |  | Ki [1]: 130 ± 20 µM
NNc1ncnc2c1ccn2[C@@H]1O[C@H](CO)[C@@H](O)[C@H]1O [Compound 69, 6-Hydrazino-7-deazapurine riboside] | 180 ± 10 µM | 
Nc1ncnc2c1ncn2[C@H]1C[C@H](O)[C@@H](CO)O1 [Compound 87, 2'-Deoxyadenosine] | 4200 µM | Decrease in binding to T. gondii adenosine kinase: 600 fold
NC(=O)c1cn([C@@H]2O[C@H](CO)[C@@H](O)[C@H]2O)c2ncnc(N)c12 [Compound 55, 7-Carboxamido-7-deazaadenosine (Sangivamycin)] |  | Ki [1]: < 60 µM
OC[C@H]1O[C@@H](n2ccc3c(Cl)ncnc32)[C@H](O)[C@@H]1O [Compound 68] | 72 ± 12 µM | 

Structure (SMILES) | Ki | further results
CNc1ncnc2c1ncn2[C@H]1C[C@H](O)[C@@H](CO)O1 [Compound 117, N^6 -Methyl-2'-deoxyadenosine] |  | inhibition at 1000 µM: < 10%
Nc1ncnc2c([C@@H]3O[C@H](CO)[C@@H](O)[C@H]3O)c[nH]c12 [Compound 60] | 3400 µM | 
CNC(=O)[C@H]1O[C@@H](n2cnc3c(N)ncnc32)[C@H](O)[C@@H]1O [Compound 102, 5'-N-(Methyl)carboxamidoadenosine] |  | inhibition at 1000 µM: < 10%
CC(C)CC[C@H]1O[C@@H](n2cnc3c(N)ncnc32)[C@H](O)[C@@H]1O [Compound 101, 5'-Isobutyl-5'-deoxyadenosine] | 410 ± 90 µM | 
CC(C)=CCCC(C)=CCNc1ncnc2c1ncn2[C@@H]1O[C@H](CO)[C@@H](O)[C@H]1O [Compound 41] | 100 ± 5 µM | 
O=c1[nH]cnc2c1cnn2[C@@H]1O[C@H](CO)[C@@H](O)[C@H]1O [Compound 77, 8-Aza-6-hydroxy-7-deazapurine riboside (allopurinol)] | 15000 µM | 
Nc1ncnc2c1nc(Br)n2[C@@H]1O[C@H](CO)[C@@H](O)[C@H]1O [Compound 59] | 660 ± 70 µM | 
OC[C@H]1O[C@@H](n2cnc3c(Cl)ncnc32)[C@H](O)[C@@H]1O [Compound 13, 6-Chloropurine riboside] | 9.5 µM | 
NNc1c(C(N)=O)c2c(N)ncnc2n1[C@@H]1O[C@H](CO)[C@@H](O)[C@H]1O [Compound 74, 8-Hydrazino-7-carboxamido-7-deazaadenosine (6-Hydrazinosangivamycin)] | 160 ± 9 µM | 
Nc1ncnc2nc[nH]c12 [Compound 115, Adenine] | 6500 µM | Decrease in binding to T. gondii adenosine kinase: 930 fold
OC[C@H]1O[C@@H](n2cnc3c(NC4CCCCC4)ncnc32)[C@H](O)[C@@H]1O [Compound 40] | 240 ± 70 µM | 
Nc1ncnc2c1ncn2[C@@H]1O[C@H](C(=O)O)[C@@H](O)[C@H]1O [Compound 99, adenosine 5'-Carboxylic acid (5'-Carboxyladenosine)] | 1100 µM | 
OC[C@H]1O[C@@H](n2cnc3c2N=CNC[C@H]3O)[C@H](O)[C@@H]1O [Compound 85, Coformycin] | 2000 µM | 
Nc1ncnc2c1c(Cl)cn2[C@@H]1O[C@H](CO)[C@@H](O)[C@H]1O [Compound 52] |  | Ki [1]: 10 ± 1 µM
Nc1ncnc2c1ncn2[C@H]1O[C@H](CO)[C@@H](O)[C@H]1O [Compound 3] | 8400 µM | 
Nc1ncnc2c1ncn2[C@@H]1O[C@H](CO)[C@@H](O)[C@@H]1O [Compound 86, Adenine arabinoside (ara-A)] | 3000 µM | Decrease in binding to T. gondii adenosine kinase: 430 fold
Nc1ncnc2c1ncn2[C@@H]1O[C@H](COC(=O)c2ccc(S(=O)(=O)F)cc2)[C@@H](O)[C@H]1O [Compound 105, 5'-(p-Fluorosulfonylbenzoyl)adenosine] |  | Ki [1]: 340 ± 40 µM
COc1ccc(C2OC3C(CO)OC(n4cnc5c(N)ncnc54)C3O2)cc1 (stereo not shown) [Compound 108, 2',3'-O-p-Anisylidene adenosine] | 1400 µM | 
CSc1ncnc2c1cnn2[C@@H]1O[C@H](CO)[C@@H](O)[C@H]1O [Compound 79, 8-Aza-6-methylmercapto-7-deazapurine riboside] | 140 ± 30 µM | 
Cn1cnc2c(ncn2[C@@H]2O[C@H](CO)[C@@H](O)[C@H]2O)c1=N [Compound 6] | 88 ± 28 µM | 
OC[C@H]1O[C@@H](n2cnc3c(NC4CCCC4)nc(Cl)nc32)[C@H](O)[C@@H]1O [Compound 66] |  | Ki [1]: 390 ± 90 µM
Nc1ncnc2c1ncn2[C@@H]1O[C@](F)(COS(N)(=O)=O)[C@@H](O)[C@H]1O [Compound 111, 4'-Flouro-5'-O-sulfamoyladenosine (nucleocidin)] |  | Ki [1]: 850 ± 220 µM
COc1ccc(C[C@H](N)C(=O)N[C@H]2[C@@H](O)[C@H](n3cnc4c(N(C)C)ncnc43)O[C@@H]2CO)cc1 [Compound 124, 3'(α-Amino-p-methoxyhydrocinnamamido)-3'-deoxy-N^6-dimethyladenosine (Puromycin)] | 1300 µM | 
Nc1nc(Cl)nc2c1ncn2[C@@H]1O[C@H](CO)[C@@H](O)[C@H]1O [Compound 7] | 870 ± 50 µM | 
